Experimental data: PubChem BioAssay (NCI)
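Step 1: Grow cells in 96-well plates. Step 2: Expose to compound for 48 hours at 5 concentrations. Step 3: Interpolate endpoints linearly; if unreached, use highest concentration. TGI: total growth inhibition.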

Experiments:
Test in all cases: NCI anticancer screen, dose series, 48 h
A498 renal = test system: A498 renal
BT-549 breast = test system: BT-549 breast
CAKI-1 renal = test system: CAKI-1 renal
DU-145 prostate = test system: DU-145 prostate
HCT-116 colon = test system: HCT-116 colon
HOP-92 NSCLC = test system: HOP-92 NSCLC
K-562 leukemia = test system: K-562 leukemia
MALME-3M melanoma = test system: MALME-3M melanoma
NCI-H460 lung = test system: NCI-H460 lung
NCI-H522 lung = test system: NCI-H522 lung
OVCAR-5 ovarian = test system: OVCAR-5 ovarian
OVCAR-8 ovarian = test system: OVCAR-8 ovarian
RXF 393 renal = test system: RXF 393 renal
SF-268 CNS = test system: SF-268 CNS
SK-MEL-28 melanoma = test system: SK-MEL-28 melanoma
SW-620 colon = test system: SW-620 colon
U251 CNS = test system: U251 CNS
UACC-62 melanoma = test system: UACC-62 melanoma

Measured: TGI

Brc1ccc2c(-c3nc(-c4c[nH]c5ccc(Br)cc45)cs3)c[nH]c2c1
11.8 µM: A498 renal
4.85 µM: NCI-H522 lung
8.36 µM: NCI-H460 lung
> 48.4 µM: UACC-62 melanoma
25.3 µM: OVCAR-8 ovarian
17.7 µM: SF-268 CNS
12.4 µM: RXF 393 renal
14.3 µM: HCT-116 colon
19.1 µM: DU-145 prostate
28.7 µM: SK-MEL-28 melanoma
27.8 µM: BT-549 breast
24.4 µM: SW-620 colon
> 22.3 µM: K-562 leukemia
10.4 µM: OVCAR-5 ovarian
16.1 µM: U251 CNS
11 µM: HOP-92 NSCLC
19.4 µM: MALME-3M melanoma
14.5 µM: CAKI-1 renal

COc1ccc(OC)c2c1C(=O)C(Cl)=C(N1CCN(CCOCCO)CC1)C2=O
41.3 µM: U251 CNS
30.5 µM: A498 renal
4.24 µM: K-562 leukemia
28 µM: BT-549 breast
31.8 µM: HOP-92 NSCLC
15.5 µM: UACC-62 melanoma
34.9 µM: MALME-3M melanoma
20.9 µM: NCI-H522 lung
17 µM: HCT-116 colon
32.8 µM: DU-145 prostate
30.9 µM: OVCAR-8 ovarian | SK-MEL-28 melanoma
33.4 µM: RXF 393 renal
28.7 µM: SW-620 colon
29.5 µM: SF-268 CNS
38 µM: NCI-H460 lung
37.3 µM: OVCAR-5 ovarian

CCC1c2[nH]c3ccccc3c2C[C@H]2C(=O)NC(CCC(=O)OC(C)(C)C)C(=O)N12 (some centres undefined)
94.9 µM: HOP-92 NSCLC
not listed: NCI-H460 lung
> 100 µM: all other assays above

O=c1[nH]nc(-c2cccc(Br)c2)[nH]1
> 100 µM: all assays above

CNC(=O)N1CCN(C(=O)NC)CCN(C(=O)NC)CC1
not listed: CAKI-1 renal
> 100 µM: all other assays above

COc1ccccc1N1C(=O)/C(=C\c2cccc(Oc3ccccc3)c2)SC1c1ccccc1 (centres undefined)
71 µM: SW-620 colon
> 100 µM: all other assays above

Cc1ccc(S(=O)(=O)OC2C3OC(C)(C)OC3OC2C(c2cc(O)c3c(c2O)C(=O)c2ccccc2C3=O)c2cc(O)c3c(c2O)C(=O)c2ccccc2C3=O)cc1 (centres undefined)
not listed: RXF 393 renal
> 10 µM: all other assays above

N#Cc1nc(COCCOCc2ccccc2)oc1N
> 100 µM: all assays above

CC/C(=N/O)c1ccc(Br)s1
> 100 µM: all assays above

O=C(CCc1ccc(O)cc1)NCCc1ccc(O)cc1
not listed: SW-620 colon
> 100 µM: all other assays above

C1=C2C3=[N+](CCCC3)CC2Cc2ccsc21 (centres undefined)
> 100 µM: all assays above

Oc1cc(O)c2c(c1)O[C@H](c1cc(O)c(O)c(O)c1)[C@H](O)C2
30.4 µM: U251 CNS
32 µM: OVCAR-5 ovarian
56.6 µM: BT-549 breast
29.6 µM: OVCAR-8 ovarian | RXF 393 renal
38.1 µM: NCI-H522 lung
40.3 µM: HCT-116 colon
48.4 µM: K-562 leukemia
32.9 µM: SW-620 colon
38.5 µM: NCI-H460 lung
61.2 µM: SF-268 CNS
not listed: UACC-62 melanoma
> 100 µM: all other assays above

CCOC(=O)N/N=C(/N)Cc1ccccc1
not listed: U251 CNS
> 100 µM: all other assays above

COC1(OC)C2(Cl)CCC1(Cl)C(OC(C)=O)C2 (centres undefined)
> 100 µM: all assays above

CC(C)NC(=O)OCc1c(COC(=O)NC(C)C)c(-c2ccc[n+](COC(=O)CC(C)(C)C)c2)n2c1CCC2
> 100 µM: all assays above

Clc1ccc2c(NCCCCN=Cc3ccccc3)ccnc2c1
> 100 µM: K-562 leukemia
32 µM: OVCAR-8 ovarian
24.5 µM: NCI-H522 lung | U251 CNS
24.2 µM: NCI-H460 lung
7.26 µM: A498 renal
25.2 µM: SW-620 colon
16.6 µM: RXF 393 renal
32.6 µM: BT-549 breast
27.5 µM: MALME-3M melanoma
40.4 µM: OVCAR-5 ovarian
35 µM: SF-268 CNS
80.8 µM: DU-145 prostate
29 µM: SK-MEL-28 melanoma
26.3 µM: HOP-92 NSCLC
18.4 µM: HCT-116 colon

C=C1CC[C@@]2(OC1)OC1C[C@H]3[C@@H]4CC=C5C[C@@H](O)CC(OC6OCC(OC(=O)[C@@H](O)[C@@H](C)CC)C(OC(C)=O)C6OC6OC(C)C(O)C(O)C6O)[C@]5(C)[C@H]4CC[C@]3(C)C1[C@@H]2C (some centres undefined)
3.21 µM: U251 CNS
3.27 µM: NCI-H522 lung
4.89 µM: OVCAR-5 ovarian
3.06 µM: HCT-116 colon
4.31 µM: OVCAR-8 ovarian
4.35 µM: DU-145 prostate
3.32 µM: NCI-H460 lung
4.48 µM: RXF 393 renal
7.85 µM: CAKI-1 renal
4.51 µM: SW-620 colon
4.12 µM: SF-268 CNS
4.71 µM: K-562 leukemia
4.58 µM: SK-MEL-28 melanoma
3.44 µM: A498 renal
3.37 µM: UACC-62 melanoma
> 10 µM: all other assays above

C=C(C)[C@@H](C(=O)OC)N1C(=O)c2ccccc2C1=O
> 100 µM: all assays above

Nc1ccc(C(=O)Nn2c(-c3ccccc3)nc3ccccc3c2=O)cc1
not listed: CAKI-1 renal
> 100 µM: all other assays above

CC(C(=O)N1c2ccccc2Sc2ccccc21)N1c2ccccc2Sc2ccccc21 (centres undefined)
not listed: CAKI-1 renal | NCI-H522 lung
> 100 µM: all other assays above

CO/N=C(\C(=O)Nc1cncs1)c1csc(NC(c2ccccc2)(c2ccccc2)c2ccccc2)n1
not listed: UACC-62 melanoma
> 10 µM: all other assays above

CCCCn1c(C)c(C(=O)OCC)c2cc(OCc3ccc(C(=O)Nn4c(C)ccc4C)cc3)c(Br)cc21
not listed: RXF 393 renal
> 100 µM: all other assays above

O=C(CC(=O)N(C(=O)c1ccccc1)c1ccc(Cl)cc1)N/N=C\c1cc(N=Nc2ccccc2Cl)ccc1O
59.6 µM: HOP-92 NSCLC
85.6 µM: A498 renal
36 µM: K-562 leukemia
not listed: NCI-H522 lung
> 100 µM: all other assays above

S=C(/N=c1/sc(Nc2ccccc2)nc2sc3c(c12)CCCC3)Nc1ccccc1
not listed: OVCAR-8 ovarian
> 62.5 µM: all other assays above

C/C(=N\NC(=S)N1CC2CCC(CC2)C1)c1ccncn1
1.04 µM: UACC-62 melanoma
2.32 µM: NCI-H522 lung
2.44 µM: CAKI-1 renal
2.84 µM: A498 renal
5.44 µM: OVCAR-5 ovarian
18.4 µM: SW-620 colon
6.26 µM: DU-145 prostate
1.5 µM: HCT-116 colon
1.42 µM: MALME-3M melanoma
2.25 µM: RXF 393 renal
3.62 µM: SF-268 CNS
1.65 µM: NCI-H460 lung
3.9 µM: HOP-92 NSCLC
6.23 µM: U251 CNS
3.54 µM: BT-549 breast
> 22.6 µM: SK-MEL-28 melanoma

COC(=O)CCC(=O)NC1c2cccc3cccc(c23)Cn2c(=O)n(C)c(=O)n21 (centres undefined)
not listed: A498 renal
> 100 µM: all other assays above
